What was measured:
Type in all cases: cell-based
[1] = system: E. coli DH5α; assay: Antibacterial activity: MIC and growth curve against E. coli DH5α in 96-well plate; details: minimal inhibitory concentration against E. coli DH5α; 96-well plate, 5×10^5 CFU/mL, 37° C., judged after 8 h
Summary of the method: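 MIC taken as lowest protein level with no bacterial growth, tracked by A600 every 30 min during 37 °C, 175 rpm culture. Two-fold protein series 50-12.5 μg/mL final, triplicate wells, against 5×10^5 CFU/mL of LB-washed mid-log cells.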

[2] = system: E. coli BL21; assay: MIC against Gram-negative bacteria: E. coli BL21; details: for MIC E. coli BL21: two-fold serial dilution
Summary of the method: (§1)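 Broth microdilution, LB medium, final inoculum 5×10^5 CFU/mL from McFarland 0.5 cultures. Recombinant human EGF domain proteins tested in two-fold steps, n=3. MIC: lowest concentration, no growth.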

[3] = system: Pseudomonas aeruginosa; assay: MIC against Gram-negative bacteria: Pseudomonas aeruginosa; details: for MIC P. aeruginosa: two-fold serial dilution
Summary of the method: as §1

[4] = system: Klebsiella pneumonia; assay: MIC against Gram-negative bacteria: Klebsiella pneumonia; details: for MIC K. pneumonia: two-fold serial dilution
Summary of the method: as §1

[5] = system: Enterobacter cloacae; assay: MIC against Gram-negative bacteria: Enterobacter cloacae; details: for MIC E. cloacae: two-fold serial dilution
Summary of the method: as §1

[6] = system: Aeromonas hydrophila; assay: MIC against Gram-negative bacteria: Aeromonas hydrophila; details: for MIC A. hydrophila: two-fold serial dilution
Summary of the method: as §1

[7] = system: Citrobacter diversus; assay: MIC against Gram-negative bacteria: Citrobacter diversus; details: for MIC C. diversus: two-fold serial dilution
Summary of the method: as §1

[8] = system: Moraxella catarrhalis; assay: MIC against Gram-negative bacteria: Moraxella catarrhalis; details: for MIC M. catarrhalis: two-fold serial dilution
Summary of the method: as §1

[9] = system: Proteus mirabilis; assay: MIC against Gram-negative bacteria: Proteus mirabilis; details: for MIC P. mirabilis: two-fold serial dilution
Summary of the method: as §1

[10] = system: Proteus vulgaris; assay: MIC against Gram-negative bacteria: Proteus vulgaris; details: for MIC P. vulgaris: two-fold serial dilution
Summary of the method: as §1

[11] = system: Serratia marcescens; assay: MIC against Gram-negative bacteria: Serratia marcescens; details: for MIC S. marcescens: two-fold serial dilution
Summary of the method: as §1

[12] = 10 h cultivation at 37° C., 5×10^5 CFU/mL
[13] = 96-well plate, 5×10^5 CFU/mL, 37° C., 10 h

For “PRT1176 (NIDDCSPNNCSHGGTCQDLVNGFKCVCPPQWTGKTCQ; listed as Homo sapiens)”, the MIC [1] was 12.5 µg/mL, the “MIC E. coli BL21” value [2, 12] was 50 µg/mL and the “MIC P. aeruginosa” value [3, 12] was 12.5 µg/mL. The “MIC K. pneumonia” value [4, 12] was 50 µg/mL, the “MIC E. cloacae” value [5, 12] was 12.5 µg/mL and the “MIC A. hydrophila” value [6, 12] was 25 µg/mL. For the same substance, the “MIC C. diversus” value [7, 12] was 50 µg/mL, the “MIC M. catarrhalis” value [8, 12] was 12.5 µg/mL and the “MIC P. mirabilis” value [9, 12] was 50 µg/mL. For the same substance, the “MIC P. vulgaris” value [10, 12] was 25 µg/mL and the “MIC S. marcescens” value [11, 12] was 12.5 µg/mL.

With “PRT1174 (DLNYCGTHQPCLNGGTCSNTGPDKYQCSCPEGYSGPNCE; listed as Homo sapiens)” the MIC [1] was 12.5 µg/mL, the “MIC E. coli BL21” value [2, 12] was 50 µg/mL and the “MIC P. aeruginosa” value [3, 12] was 12.5 µg/mL. The “MIC K. pneumonia” value [4, 12] was 50 µg/mL, the “MIC E. cloacae” value [5, 12] was 12.5 µg/mL and the “MIC A. hydrophila” value [6, 12] was 50 µg/mL. The “MIC C. diversus” value [7, 12] was 12.5 µg/mL, the “MIC M. catarrhalis” value [8, 12] was 50 µg/mL and the “MIC P. mirabilis” value [9, 12] was 12.5 µg/mL. For the same substance, the “MIC P. vulgaris” value [10, 12] was 25 µg/mL and the “MIC S. marcescens” value [11, 12] was 50 µg/mL.

“PRT486 (EANPCKFQACNEFSECLVNPWSGEAKCRCFPGYLSVEERPCQ; listed as Homo sapiens)” was tested, and the MIC [1] was 12.5 µg/mL, the “MIC against E. coli BL21” value [2, 13] was 50 µg/mL and the “MIC against P. aeruginosa” value [3, 13] was 12.5 µg/mL. For the same substance, the “MIC against K. pneumonia” value [4, 13] was 50 µg/mL, the “MIC against E. cloacae” value [5, 13] was 12.5 µg/mL and the “MIC against A. hydrophila” value [6, 13] was 50 µg/mL. The “MIC against C. diversus” value [7, 13] was 12.5 µg/mL, the “MIC against M. catarrhalis” value [8, 13] was 50 µg/mL and the “MIC against P. mirabilis” value [9, 13] was 12.5 µg/mL. The “MIC against P. vulgaris” value [10, 13] was 50 µg/mL and the “MIC against S. marcescens” value [11, 13] was 25 µg/mL.

“PRT982 (VLSPCESQPCQHGGQCRPSPGPGGGLTFTCHCAQPFWGPRCE; listed as Homo sapiens)” showed an MIC [1] of 50 µg/mL, an MIC ([2]; E. coli BL21, 10 h cultivation at 37° C.) of 25 µg/mL and an MIC ([3]; P. aeruginosa, 10 h cultivation at 37° C.) of 12.5 µg/mL. For the same substance, the MIC ([4]; K. pneumonia, 10 h cultivation at 37° C.) was 50 µg/mL, the MIC ([5]; E. cloacae, 10 h cultivation at 37° C.) was 12.5 µg/mL and the MIC ([6]; A. hydrophila, 10 h cultivation at 37° C.) was 25 µg/mL. It also gave an MIC ([7]; C. diversus, 10 h cultivation at 37° C.) of 50 µg/mL, an MIC ([8]; M. catarrhalis, 10 h cultivation at 37° C.) of 12.5 µg/mL and an MIC ([9]; P. mirabilis, 10 h cultivation at 37° C.) of 50 µg/mL. The MIC ([10]; P. vulgaris, 10 h cultivation at 37° C.) was 12.5 µg/mL and the MIC ([11]; S. marcescens, 10 h cultivation at 37° C.) was 50 µg/mL.

“PRT59 (PCTVGDASACLTCAPDNRTRCGTCNTGYMLSQGLCK; listed as Homo sapiens)” was tested, and the MIC [1] was 25 µg/mL, the “MIC (μg/mL) E. coli BL21” value ([2]; E. coli BL21, 96-well plate, 5×10^5 CFU/mL, 37° C., 10 h) was 12.5 µg/mL and the “MIC (μg/mL) P. aeruginosa” value ([3]; Pseudomonas aeruginosa, 96-well plate, 5×10^5 CFU/mL, 37° C., 10 h) was 25 µg/mL. For the same substance, the “MIC (μg/mL) K. pneumonia” value ([4]; Klebsiella pneumonia, 96-well plate, 5×10^5 CFU/mL, 37° C., 10 h) was 50 µg/mL, the “MIC (μg/mL) E. cloacae” value ([5]; Enterobacter cloacae, 96-well plate, 5×10^5 CFU/mL, 37° C., 10 h) was 25 µg/mL and the “MIC (μg/mL) A. hydrophila” value ([6]; Aeromonas hydrophila, 96-well plate, 5×10^5 CFU/mL, 37° C., 10 h) was 12.5 µg/mL. The “MIC (μg/mL) C. diversus” value ([7]; Citrobacter diversus, 96-well plate, 5×10^5 CFU/mL, 37° C., 10 h) was 25 µg/mL, the “MIC (μg/mL) M. catarrhalis” value ([8]; Moraxella catarrhalis, 96-well plate, 5×10^5 CFU/mL, 37° C., 10 h) was 12.5 µg/mL and the “MIC (μg/mL) P. mirabilis” value ([9]; Proteus mirabilis, 96-well plate, 5×10^5 CFU/mL, 37° C., 10 h) was 25 µg/mL. The “MIC (μg/mL) P. vulgaris” value ([10]; Proteus vulgaris, 96-well plate, 5×10^5 CFU/mL, 37° C., 10 h) was 12.5 µg/mL and the “MIC (μg/mL) S. marcescens” value ([11]; Serratia marcescens, 96-well plate, 5×10^5 CFU/mL, 37° C., 10 h) was 12.5 µg/mL.

With “PRT754 (IQDLCAMEDHNCEQLCVNVPGSFVCQCYSGYALAEDGKRCV; listed as Homo sapiens)” the MIC [1] was 25 µg/mL, the “MIC (μg/mL) E. coli BL21” value ([2]; E. coli BL21, 10 h cultivation at 37° C., 5×10^5 CFU/mL) was 12.5 µg/mL and the “MIC (μg/mL) P. aeruginosa” value ([3]; P. aeruginosa, 10 h cultivation at 37° C., 5×10^5 CFU/mL) was 50 µg/mL. For the same substance, the “MIC (μg/mL) K. pneumonia” value ([4]; K. pneumonia, 10 h cultivation at 37° C., 5×10^5 CFU/mL) was 25 µg/mL, the “MIC (μg/mL) E. cloacae” value ([5]; E. cloacae, 10 h cultivation at 37° C., 5×10^5 CFU/mL) was 12.5 µg/mL and the “MIC (μg/mL) A. hydrophila” value ([6]; A. hydrophila, 10 h cultivation at 37° C., 5×10^5 CFU/mL) was 25 µg/mL. The “MIC (μg/mL) C. diversus” value ([7]; C. diversus, 10 h cultivation at 37° C., 5×10^5 CFU/mL) was 50 µg/mL, the “MIC (μg/mL) M. catarrhalis” value ([8]; M. catarrhalis, 10 h cultivation at 37° C., 5×10^5 CFU/mL) was 25 µg/mL and the “MIC (μg/mL) P. mirabilis” value ([9]; P. mirabilis, 10 h cultivation at 37° C., 5×10^5 CFU/mL) was 12.5 µg/mL. For the same substance, the “MIC (μg/mL) P. vulgaris” value ([10]; P. vulgaris, 10 h cultivation at 37° C., 5×10^5 CFU/mL) was 50 µg/mL and the “MIC (μg/mL) S. marcescens” value ([11]; S. marcescens, 10 h cultivation at 37° C., 5×10^5 CFU/mL) was 25 µg/mL.

From patent US9833497B2, “Human originated EGF domain proteins and use of the same” (CHENGDU SOURCEBIO LIMITED-LIABILITY COMPANY, priority 2013, dated 2017)
